Data reported in patent US20230148214A1, “INDAZOLES AND AZAINDAZOLES AS LRRK2 INHIBITORS” (ESCAPE Bio, Inc., priority 2020, published 2023).

Experiments:
LRRK2 WT = molecular target: T1, LRRK2 WT (Homo sapiens, UniProt Q5S007); experiment: LRRK2 Kinase Activity Assay (LanthaScreen TR-FRET), wild type; assay type: biochemical; settings: recombinant wild type LRRK2, 25 μM ATP, 400 nM LRRKtide, 60 min; class symbols
T1 construct: purchased Life Technologies PR8604B
In short: (§1)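 IC50 fitted to the compound-dependent loss of TR-FRET signal. Each kinase form, wild type or G2019S, phosphorylated the fluorescein-tagged ERM-derived LRRKtide in the presence of ATP and compound dilutions over 60 min at room temperature; quench contained 10 mM EDTA and 2 nM anti-pERM antibody (final).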

LRRK2 G2019S = molecular target: T2, LRRK2 G2019S (Homo sapiens, UniProt Q5S007, G2019S); experiment: LRRK2 Kinase Activity Assay (LanthaScreen TR-FRET), G2019S; assay type: biochemical; settings: recombinant G2019S-LRRK2, 25 μM ATP, 400 nM LRRKtide, 60 min; class symbols
T2 construct: purchased Life Technologies PV4881
In short: as §1

T1 sequence (Q5S007 whole entry): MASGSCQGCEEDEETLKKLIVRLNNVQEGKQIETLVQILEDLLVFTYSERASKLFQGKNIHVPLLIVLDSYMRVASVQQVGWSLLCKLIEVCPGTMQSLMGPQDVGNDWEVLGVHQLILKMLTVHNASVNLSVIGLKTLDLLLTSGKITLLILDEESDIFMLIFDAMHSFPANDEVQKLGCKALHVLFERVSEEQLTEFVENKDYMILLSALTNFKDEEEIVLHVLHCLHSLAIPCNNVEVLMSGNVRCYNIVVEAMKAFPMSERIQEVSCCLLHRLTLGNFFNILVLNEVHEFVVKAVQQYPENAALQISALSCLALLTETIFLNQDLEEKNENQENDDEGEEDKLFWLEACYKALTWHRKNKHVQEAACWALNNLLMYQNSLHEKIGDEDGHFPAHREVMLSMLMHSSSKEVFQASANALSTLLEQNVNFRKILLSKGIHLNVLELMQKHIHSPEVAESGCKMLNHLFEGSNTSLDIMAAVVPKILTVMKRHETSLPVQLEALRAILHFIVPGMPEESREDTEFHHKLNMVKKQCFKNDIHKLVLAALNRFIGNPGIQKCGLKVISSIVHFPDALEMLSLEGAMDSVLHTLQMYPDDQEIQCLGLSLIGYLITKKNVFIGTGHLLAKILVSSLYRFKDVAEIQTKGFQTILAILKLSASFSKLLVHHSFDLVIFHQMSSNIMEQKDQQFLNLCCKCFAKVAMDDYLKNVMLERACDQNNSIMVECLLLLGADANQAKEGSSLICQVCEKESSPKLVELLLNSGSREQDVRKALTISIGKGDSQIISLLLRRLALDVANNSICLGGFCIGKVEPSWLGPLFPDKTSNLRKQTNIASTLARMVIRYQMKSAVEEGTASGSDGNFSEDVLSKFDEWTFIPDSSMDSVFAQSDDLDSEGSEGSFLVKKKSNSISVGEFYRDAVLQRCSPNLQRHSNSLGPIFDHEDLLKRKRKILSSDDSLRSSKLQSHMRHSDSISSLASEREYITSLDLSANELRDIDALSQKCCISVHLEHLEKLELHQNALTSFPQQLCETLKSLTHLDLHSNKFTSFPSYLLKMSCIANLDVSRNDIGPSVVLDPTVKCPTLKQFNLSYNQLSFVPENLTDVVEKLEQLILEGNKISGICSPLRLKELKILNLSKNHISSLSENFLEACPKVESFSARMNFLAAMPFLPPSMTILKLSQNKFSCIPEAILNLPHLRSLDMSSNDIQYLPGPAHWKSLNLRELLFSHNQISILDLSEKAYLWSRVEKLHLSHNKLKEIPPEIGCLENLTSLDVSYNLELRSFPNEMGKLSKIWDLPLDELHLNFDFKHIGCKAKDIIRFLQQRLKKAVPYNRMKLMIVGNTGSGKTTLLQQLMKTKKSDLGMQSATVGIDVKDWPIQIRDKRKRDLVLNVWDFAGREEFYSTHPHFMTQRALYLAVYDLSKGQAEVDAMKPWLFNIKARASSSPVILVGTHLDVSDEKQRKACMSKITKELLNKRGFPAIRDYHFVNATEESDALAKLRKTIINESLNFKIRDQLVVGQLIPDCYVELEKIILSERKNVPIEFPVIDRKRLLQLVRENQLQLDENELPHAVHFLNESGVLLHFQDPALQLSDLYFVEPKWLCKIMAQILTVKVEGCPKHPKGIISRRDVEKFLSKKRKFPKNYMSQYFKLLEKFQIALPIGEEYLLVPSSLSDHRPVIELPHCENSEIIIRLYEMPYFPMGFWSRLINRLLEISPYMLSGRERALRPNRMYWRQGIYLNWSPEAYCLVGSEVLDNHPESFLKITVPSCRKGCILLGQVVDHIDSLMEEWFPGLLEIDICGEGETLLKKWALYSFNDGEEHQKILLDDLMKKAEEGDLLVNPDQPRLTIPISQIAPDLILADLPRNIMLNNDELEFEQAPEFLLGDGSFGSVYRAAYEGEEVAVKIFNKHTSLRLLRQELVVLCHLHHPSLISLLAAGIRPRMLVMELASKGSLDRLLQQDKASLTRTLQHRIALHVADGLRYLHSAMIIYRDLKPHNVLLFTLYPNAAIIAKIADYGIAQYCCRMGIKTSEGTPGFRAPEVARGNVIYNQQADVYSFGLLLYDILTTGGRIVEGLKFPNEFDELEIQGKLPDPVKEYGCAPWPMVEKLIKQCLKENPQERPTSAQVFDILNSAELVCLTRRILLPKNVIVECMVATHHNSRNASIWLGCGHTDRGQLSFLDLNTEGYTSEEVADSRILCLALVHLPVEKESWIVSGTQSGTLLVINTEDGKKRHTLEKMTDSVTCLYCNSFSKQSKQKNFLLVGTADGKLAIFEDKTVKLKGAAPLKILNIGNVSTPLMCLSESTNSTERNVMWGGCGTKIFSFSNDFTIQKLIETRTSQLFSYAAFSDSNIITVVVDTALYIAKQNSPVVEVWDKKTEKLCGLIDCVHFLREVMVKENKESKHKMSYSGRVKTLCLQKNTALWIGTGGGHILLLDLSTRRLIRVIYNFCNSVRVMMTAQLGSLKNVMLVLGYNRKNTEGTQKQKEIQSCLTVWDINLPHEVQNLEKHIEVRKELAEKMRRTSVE
T2 sequence (Q5S007 whole entry G2019S): as the sequence (Q5S007 whole entry) above, with G2019S counted along it

Row | SMILES | IC50 (LRRK2 WT) [nM] | IC50 (LRRK2 G2019S) [nM]
1 | COc1c(C#N)cnc2c1CCC[C@@H]2Nc1ccc2[nH]nc(-c3cnco3)c2c1 (single isomer, unassigned) [Example 146, enantiomer 1, 4-Methoxy-8-((3-(oxazol-5-yl)-1H-indazol-5-yl)amino)-5,6,7,8-tetrahydroquinoline-3-carbonitrile] | 100 to 1000 | < 100
2 | N#Cc1cnc2c(c1C(F)F)CCC[C@@H]2Nc1ccc2[nH]nc(-c3cnco3)c2c1 (single isomer, unassigned) [Example 147, enantiomer 1, 4-(Difluoromethyl)-8-((3-(oxazol-5-yl)-1H-indazol-5-yl)amino)-5,6,7,8-tetrahydroquinoline-3-carbonitrile] | < 100 | < 100
3 | N#Cc1cnc2c(c1C(F)F)CCC[C@@H]2Nc1ccc2[nH]nc(-c3cnco3)c2c1 (single isomer, unassigned) [Example 147, enantiomer 2, 4-(Difluoromethyl)-8-((3-(oxazol-5-yl)-1H-indazol-5-yl)amino)-5,6,7,8-tetrahydroquinoline-3-carbonitrile] | 100 to 1000 | < 100
4 | N#Cc1cnc2c(c1)CCC[C@@H]2Nc1ccc2[nH]nc(-c3ccc[nH]3)c2c1 (single isomer, unassigned) [Example 148, enantiomer 1, 8-((3-(1H-Pyrrol-2-yl)-1H-indazol-5-yl)amino)-5,6,7,8-tetrahydroquinoline-3-carbonitrile] | < 100 | < 100
5 | N#Cc1cnc2c(c1)CCC[C@@H]2Nc1ccc2[nH]nc(-c3ccc[nH]3)c2c1 (single isomer, unassigned) [Example 148, enantiomer 2, 8-((3-(1H-Pyrrol-2-yl)-1H-indazol-5-yl)amino)-5,6,7,8-tetrahydroquinoline-3-carbonitrile] | 100 to 1000 | 100 to 1000
6 | Cn1ccc(-c2n[nH]c3ccc(N[C@H]4CCCc5cc(C#N)cnc54)cc23)c1 (single isomer, unassigned) [Example 149, enantiomer 1, 8-((3-(1-Methyl-1H-pyrrol-3-yl)-1H-indazol-5-yl)amino)-5,6,7,8-tetrahydroquinoline-3-carbonitrile] | 100 to 1000 | 100 to 1000
7 | Cn1ccc(-c2n[nH]c3ccc(N[C@H]4CCCc5cc(C#N)cnc54)cc23)c1 (single isomer, unassigned) [Example 149, enantiomer 2, 8-((3-(1-Methyl-1H-pyrrol-3-yl)-1H-indazol-5-yl)amino)-5,6,7,8-tetrahydroquinoline-3-carbonitrile] | < 100 | < 100
8 | Cc1c(C#N)cnc2c1CCC[C@@H]2Nc1ccc2[nH]nc(-c3cnco3)c2c1 (single isomer, unassigned) [Example 150, enantiomer 1, 4-Methyl-8-((3-(oxazol-5-yl)-1H-indazol-5-yl)amino)-5,6,7,8-tetrahydroquinoline-3-carbonitrile] | 100 to 1000 | 100 to 1000
9 | Cc1c(C#N)cnc2c1CCC[C@@H]2Nc1ccc2[nH]nc(-c3cnco3)c2c1 (single isomer, unassigned) [Example 150, enantiomer 2, 4-Methyl-8-((3-(oxazol-5-yl)-1H-indazol-5-yl)amino)-5,6,7,8-tetrahydroquinoline-3-carbonitrile] | < 100 | < 100
10 | N#Cc1ccc2c(c1F)CC(F)(F)[C@@H]2Nc1ccc2[nH]nc(-c3cnco3)c2c1 (single isomer, unassigned) [Example 151, enantiomer 1, 2,2,4-Trifluoro-1-((3-(oxazol-5-yl)-1H-indazol-5-yl)amino)-2,3-dihydro-1H-indene-5-carbonitrile] | 100 to 1000 | < 100
11 | N#Cc1ccc2c(c1)CCCC2Oc1ccc2[nH]nc(C(F)(F)F)c2c1 (single isomer, unassigned) [Example 152, enantiomer 1, 5-((3-(Trifluoromethyl)-1H-indazol-5-yl)oxy)-5,6,7,8-tetrahydronaphthalene-2-carbonitrile] | 1000 to 10000 | 1000 to 10000
12 | N#Cc1ccc2c(c1)CCCC2Nc1ccc2[nH]nc(C(F)(F)F)c2c1 (single isomer, unassigned) [Example 153, enantiomer 1, 5-((3-(Trifluoromethyl)-1H-indazol-5-yl)amino)-5,6,7,8-tetrahydronaphthalene-2-carbonitrile] | 1000 to 10000 | < 100
13 | COc1c(C#N)cnc2c1CC[C@@H]2Nc1ccc2[nH]nc(-c3cnco3)c2c1 (single isomer, unassigned) [Example 154, enantiomer 2, 4-Methoxy-7-((3-(oxazol-5-yl)-1H-indazol-5-yl)amino)-6,7-dihydro-5H-cyclopenta[b]pyridine-3-carbonitrile] | < 100 | < 100
14 | Cc1ncc(-c2n[nH]c3ccc(N[C@@H]4c5ccc(C#N)cc5CC4(F)F)cc23)o1 (single isomer, unassigned) [Example 155, enantiomer 1, 2,2-Difluoro-1-((3-(2-methyloxazol-5-yl)-1H-indazol-5-yl)amino)-2,3-dihydro-1H-indene-5-carbonitrile] | < 100 | < 100
15 | Cc1ncc(-c2n[nH]c3ccc(O[C@H]4CCc5c4ccc(C#N)c5F)cc23)o1 (single isomer, unassigned) [Example 156, enantiomer 1, 4-Fluoro-1-((3-(2-methyloxazol-5-yl)-1H-indazol-5-yl)oxy)-2,3-dihydro-1H-indene-5-carbonitrile] | < 100 | < 100
16 | N#Cc1ccc2c(c1)CCC[C@@H]2Nc1ccc2[nH]nc(-c3ccn[nH]3)c2c1 (single isomer, unassigned) [Example 157, enantiomer 1, 5-((3-(1H-Pyrazol-5-yl)-1H-indazol-5-yl)amino)-5,6,7,8-tetrahydronaphthalene-2-carbonitrile] | 100 to 1000 | 100 to 1000
17 | N#Cc1ccc2c(c1)CCC[C@@H]2Nc1ccc2[nH]nc(-c3ccn[nH]3)c2c1 (single isomer, unassigned) [Example 157, enantiomer 2, 5-((3-(1H-Pyrazol-5-yl)-1H-indazol-5-yl)amino)-5,6,7,8-tetrahydronaphthalene-2-carbonitrile] | < 100 | < 100
18 | Cc1cc(-c2n[nH]c3ccc(N[C@H]4CCCc5cc(C#N)cnc54)cc23)sn1 (single isomer, unassigned) [Example 158, enantiomer 1, 8-((3-(3-Methylisothiazol-5-yl)-1H-indazol-5-yl)amino)-5,6,7,8-tetrahydroquinoline-3-carbonitrile] | < 100 | < 100
19 | Cc1ncc(-c2n[nH]c3ccc(N[C@H]4CCCc5cc(C#N)c(C)nc54)cc23)o1 (single isomer, unassigned) [Example 159, enantiomer 1, 2-Methyl-8-((3-(2-methyloxazol-5-yl)-1H-indazol-5-yl)amino)-5,6,7,8-tetrahydroquinoline-3-carbonitrile] | < 100 | < 100

Continued, values first:

Row | IC50 (LRRK2 WT) [nM] | IC50 (LRRK2 G2019S) [nM] | SMILES
20 | < 100 | < 100 | Cc1ncc(-c2n[nH]c3ccc(O[C@H]4CCc5cc(C#N)c(F)cc54)cc23)o1 (single isomer, unassigned) [Example 160, enantiomer 1, 6-Fluoro-1-((3-(2-methyloxazol-5-yl)-1H-indazol-5-yl)oxy)-2,3-dihydro-1H-indene-5-carbonitrile]
21 | < 100 | < 100 | N#Cc1cnc2c(c1)CCC[C@@H]2Oc1ccc2[nH]nc(-c3cnccn3)c2c1 (single isomer, unassigned) [Example 161, enantiomer 1, 8-((3-(Pyrazin-2-yl)-1H-indazol-5-yl)oxy)-5,6,7,8-tetrahydroquinoline-3-carbonitrile]
22 | 100 to 1000 | < 100 | N#Cc1cnc2c(c1)CCC[C@@H]2Oc1ccc2[nH]nc(-c3cnccn3)c2c1 (single isomer, unassigned) [Example 161, enantiomer 2, 8-((3-(Pyrazin-2-yl)-1H-indazol-5-yl)oxy)-5,6,7,8-tetrahydroquinoline-3-carbonitrile]
23 | 100 to 1000 | 100 to 1000 | [2H][C@]1(Nc2ccc3[nH]nc(-c4cnco4)c3c2)CCCc2cc(C#N)cnc21 (single isomer, unassigned) [Example 162, enantiomer 1, 8-Deuterio-8-((3-(oxazol-5-yl)-1H-indazol-5-yl)amino)-5,6,7,8-tetrahydroquinoline-3-carbonitrile]
24 | < 100 | < 100 | [2H][C@]1(Nc2ccc3[nH]nc(-c4cnco4)c3c2)CCCc2cc(C#N)cnc21 (single isomer, unassigned) [Example 162, enantiomer 2, 8-Deuterio-8-((3-(oxazol-5-yl)-1H-indazol-5-yl)amino)-5,6,7,8-tetrahydroquinoline-3-carbonitrile]
25 | 100 to 1000 | < 100 | N#Cc1cnc2c(n1)CCC[C@@H]2Oc1ccc2[nH]nc(-c3cnco3)c2c1 (single isomer, unassigned) [Example 163, enantiomer 1, 5-[[3-(1,3-Oxazol-5-yl)-1H-indazol-5-yl]oxy]-5,6,7,8-tetrahydroquinoxaline-2-carbonitrile]
26 | 100 to 1000 | < 100 | Cc1nc2c(c(C)c1C#N)CCC[C@@H]2Nc1ccc2[nH]nc(-c3cnco3)c2c1 (single isomer, unassigned) [Example 164, enantiomer 1, 2,4-Dimethyl-8-[[3-(1,3-oxazol-5-yl)-1H-indazol-5-yl]amino]-5,6,7,8-tetrahydroquinoline-3-carbonitrile]
27 | 100 to 1000 | < 100 | COc1nc2c(c(C)c1C#N)CCC[C@@H]2Nc1ccc2[nH]nc(-c3cnco3)c2c1 (single isomer, unassigned) [Example 165, enantiomer 1, 2-Methoxy-4-methyl-8-[[3-(1,3-oxazol-5-yl)-1H-indazol-5-yl]amino]-5,6,7,8-tetrahydroquinoline-3-carbonitrile]
